According to patent publication US20100016731A1, “Hemodynamic Detection of Circulatory Anomalies” (Cardiox Corporation, priority 2008, published 2010):
Counter-ions that a name gives are not always drawn.

Assays:
[1] = Excitation and fluorescence wavelengths and signal attenuation versus tissue depth of fluorescing dyes (FIG. 2); assay type: physicochemical
Excerpt: These fluorescing dyes are excited by one wavelength of electromagnetic radiation, and emit a detectable signal at a second wavelength. Looking to FIG. 2, the excitation signal for fluorescein dye is represented at curve 30 which is an excitation signal at less than about 500 nanometers (nm). A resultant fluorescence emission from the excitation at 30 is shown at curve 32, at a wavelength of about 525 nm.
Looking to the indocyanine green dye spectrum, an excitation curve is shown at 34, having a peak excitation wavelength at about 785 nanometers. Correspondingly, the fluorescence emission from excitation at curve 34 is represented at curve 36 with a peak emission wavelength of about 830 nanometers. Directed across FIG. 2 is a curve representing the level of constant signal attenuation or absorption of about 37% resulting from passage of signal through tissue. That curve is represented at 38. Note that if a blood vessel is about one millimeter beneath the surface of skin the system would perform at about 37% of the original intensity of the excitation signal and fluorescence signal for the case of indocyanine green dye indicator. In contrast, a 37% decrease in excitation and emission signal level would result for the fluorescein dye indicator at a tissue thickness of only 0.25 mm. Since blood vessel being targeted is at least 1 mm below skin surface, the attenuation and associated signal loss would be much larger. Therefore, indocyanine green dye is preferred.
Turning again to the indocyanine green dye spectrum, note that the excitation signal 34 for ICG intersects curve 38 at a depth allowing for readily reaching blood vessels, for example within the pinna of the ear. Accordingly, indocyanine green is compatible with use as a circulatory tracking agent when detecting through skin, and indocyanine green was the indicator elected for subsequent study.

[2] = manufacturers specified guideline; cited from earlier work
[3] = 1 day
Excerpt: However, due to the ratiometric form of Eq. 7 in the present invention, the terms D and CCF cancel out. Also, the units of measure for the fluorescence signal level (e.g., millivolts-seconds) cancel out. […] However, the amount of the indicator injected needs to be sufficiently large so that the much smaller indicator/dilution curves associated with one or two right-to-left shunts can be adequately resolved and their corresponding areas can be accurately calculated. In a preferred embodiment of the present invention involving the use of Indocyanine Green (ICG) dye (supplied, for example, by Akorn, Inc., 2500 Millbrook Drive, Buffalo Grove, Ill. 60089) as the indicator, the preferred amount of ICG dye injected is 2.0 ml at an ICG dye concentration of 2.5 milligram/ml which is equivalent to an injected ICG dose of 5.0 milligrams. The chemical name for Indocyanine Green is 1H-benz(e)indolium, 2-[7-[1,3-dihydro-1,1-dimethyl-3-(4-sulfobutyl)-2H-benz[e]indo-2-ylidene]-1,3,5-heptatrienyl]-1,1-dimethyl-3-(4-sulfobutyl)-hydroxide, inner salt, sodium, or 2-[7-[1,1-dimethyl-3-(4-sulfobutyl)benz[e]indolin-2-ylidene]-1,3,5-heptatrienyl]-1,1-dimethyl-3-(4-sulfobutyl)-1H-benz[e]indolium hydroxide, inner salt, sodium salt. A typical right-to-left shunt test procedure might involve a total of 3 to 5 tests which represents a total injected dose of 15 to 25 milligrams. […]

excitation wavelength ([1]; FIG. 2)	recommended ICG dose for a human subject [3]	fluorescence emission wavelength ([1]; FIG. 2)	tissue thickness (depth of blood vessel beneath skin) at constant signal attenuation of about 37% ([1]; excitation and fluorescence signal, FIG. 2 curve 38)	SMILES	recommended maximum ICG dose per day [2]
about 785 nanometers	about 127 milligrams	–	–	CC1(C)C(/C=C/C=C/C=C/C=C2\N(CCCCS(=O)(=O)O)c3ccc4ccccc4c3C2(C)C)=[N+](CCCCS(=O)(=O)[O-])c2ccc3ccccc3c21 [ICG, 1H-benz(e)indolium, 2-[7-[1,3-dihydro-1,1-dimethyl-3-(4-sulfobutyl)-2H-benz[e]indo-2-ylidene]-1,3,5-heptatrienyl]-1,1-dimethyl-3-(4-sulfobutyl)-hydroxide, inner salt, sodium]	≤ 2 milligrams per kilogram of body weight
less than 500 nanometers	–	about 525 nm	0.25 mm	O=C1OC2(c3ccc(O)cc3Oc3cc(O)ccc32)c2ccccc21 [fluorescein]	–
